Measured values from article PMC8092268, “Quorum Sensing in Streptococcus mutans Regulates Production of Tryglysin, a Novel RaS-RiPP Antimicrobial Compound” (mBio, 2021).
Entries after “also recorded” stand apart in the source; their conditions may differ. Marks after values point to notes of the source that are not given here. No end group written: not given here.

Columns and labels:
[1] = system: Pshp-luxAB reporter (PdrA/SHP system); assay: luciferase assay, chromosomal Pshp-luxAB reporter, wild type; conditions: CDM; for induction of Pshp-luxAB by tryglysins: 100 nM tryglysin
[2] = system: E. faecalis V583; assay: growth inhibition by tryglysins; assay type: cell-based, Enterococcus faecalis; design: key: −: not inhibited; +: mildly inhibited; ++: inhibited; conditions: 100 nM tryglysin, CDM, 37°C, 5% CO2, OD600 every hour; summary of growth curves
Experimental: (§1) For experiments to examine the effect of tryglysins, bacterial strains were grown from prestored glycerol stocks at −80°C and inoculated into THY broth. […] To monitor growth, OD600 was measured using a GENESYS 30 Vis spectrophotometer every hour.

[3] = system: L. lactis ATCC 11454; assay: growth inhibition by tryglysins; assay type: cell-based, Lactococcus lactis; design: key: −: not inhibited; +: mildly inhibited; ++: inhibited; conditions: 100 nM tryglysin, CDM, 37°C, 5% CO2, OD600 every hour; summary of growth curves
Experimental: as §1

[4] = system: S. pyogenes NZ131; assay: growth inhibition by tryglysins; assay type: cell-based, Streptococcus pyogenes; design: key: −: not inhibited; +: mildly inhibited; ++: inhibited; conditions: 100 nM tryglysin, CDM, 37°C, 5% CO2, OD600 every hour; summary of growth curves
Experimental: as §1

[5] = system: S. ferus DSM 20646; assay: growth inhibition by tryglysins; assay type: cell-based, Streptococcus ferus; design: key to Level of inhibition: −: not inhibited; +: mildly inhibited; ++: inhibited; conditions: CDM; for Level of inhibition: 100 nM tryglysin, 37°C, 5% CO2, OD600 every hour, summary of growth curves; for growth inhibition at 100 nM (titration): Fig. 6
Experimental: as §1

[6] = system: S. mutans UA159; assay: growth inhibition by tryglysins; assay type: cell-based, Streptococcus mutans; design: key to Level of inhibition: −: not inhibited; +: mildly inhibited; ++: inhibited; conditions: for Level of inhibition: 100 nM tryglysin, 37°C, 5% CO2, OD600 every hour, summary of growth curves; for growth inhibition at 100 nM (titration): 9-h growth assay, Fig. 6
Experimental: as §1

[7] = system: S. gordonii Challis Bt; assay: growth inhibition by tryglysins; assay type: cell-based, Streptococcus gordonii; design: key: −: not inhibited; +: mildly inhibited; ++: inhibited; conditions: 100 nM tryglysin, CDM, 37°C, 5% CO2, OD600 every hour; summary of growth curves
Experimental: as §1

[8] = system: S. mitis CCUG 31611; assay: growth inhibition by tryglysins; assay type: cell-based, Streptococcus mitis; design: key: −: not inhibited; +: mildly inhibited; ++: inhibited; conditions: 100 nM tryglysin, CDM, 37°C, 5% CO2, OD600 every hour; summary of growth curves
Experimental: as §1

[9] = system: S. oralis 108; assay: growth inhibition by tryglysins; assay type: cell-based, Streptococcus oralis; design: key: −: not inhibited; +: mildly inhibited; ++: inhibited; conditions: 100 nM tryglysin, CDM, 37°C, 5% CO2, OD600 every hour; summary of growth curves
Experimental: as §1

[10] = system: S. pneumoniae D39; assay: growth inhibition by tryglysins; assay type: cell-based, Streptococcus pneumoniae; design: key to Level of inhibition: −: not inhibited; +: mildly inhibited; ++: inhibited; conditions: for Level of inhibition: 100 nM tryglysin, CDM, 37°C, 5% CO2, OD600 every hour, summary of growth curves
Experimental: as §1

[11] = system: S. agalactiae A909; assay: growth inhibition by tryglysins; assay type: cell-based, Streptococcus agalactiae; design: key: −: not inhibited; +: mildly inhibited; ++: inhibited; conditions: 100 nM tryglysin, CDM, 37°C, 5% CO2, OD600 every hour; summary of growth curves
Experimental: as §1

[12] = system: S. bovis JB1; assay: growth inhibition by tryglysins; assay type: cell-based, Streptococcus bovis; design: key: −: not inhibited; +: mildly inhibited; ++: inhibited; conditions: 100 nM tryglysin, CDM, 37°C, 5% CO2, OD600 every hour; summary of growth curves
Experimental: as §1

[13] = system: S. mutans UA159; assay: CFU/ml assay (bacteriostatic or bactericidal); assay type: cell-based, Streptococcus mutans; conditions: 100 nM, CDM; for recovery of viability: 24 h; for mode of action on viability: overall effect
Experimental: To perform CFU/milliliter assays, S. mutans was grown overnight, washed, and resuspended in CDM as outlined above in the “Luciferase assays with chromosomal reporters” section, with the exception that replicate tubes for harvest at each time point for both no-tryglysin and tryglysin-treated conditions were inoculated from bacterial cultures resuspended overnight. […] At this time point (0 h) and at 1, 2, 4, 6, 8 and 24 h after tryglysin addition, a set of no-tryglysin and tryglysin-treated tubes were harvested. At each time point, 100 μl from each tube in a set was harvested and diluted 1:10 successively in fresh THY. Dilutions from 10^−3 to 10^−6 (depending on the time point) were plated as follows: for each dilution, 10 μl was plated in triplicate on THY agar plates and allowed to drip vertically down the plate. This allowed for the spread of S. mutans colonies for later CFU/ml counting. After each dilution plating, plates were placed at 37°C and incubated for 48 h. […] After 2 days of incubation, colonies were counted for each time point, replicate, and condition, and the number of CFU/milliliter was calculated. Drip plates were considered to have accurate counts if colonies were between 10 and 150 colonies per drip. […] Statistical analysis was performed using a one-way ANOVA with Sidak’s multiple comparison posttest on Graph Pad Prism.

[14] = system: S. mutans UA159; assay: cell chaining by microscopy; assay type: cell-based, Streptococcus mutans; conditions: 100 nM
Experimental: For microscopic analysis of live cells exposed to tryglysins, S. mutans strains were inoculated and grown as described above in the “Luciferase assays with chromosomal reporters” section. […] For microscopic analysis of samples, 2 μl of live cells was taken at 2 h, 5 h, and 7 h after the addition of tryglysins and examined using an Olympus CKX53 inverted microscope with a 40× LCACHN-iPC infinity objective (LCACHN40XIPC; numerical aperture, 0.55) connected to a SC50 camera (Olympus). Images were processed using Olympus Stream Image Analysis software (Olympus).
For microscopic analysis of fixed cells exposed to tryglysin A, S. mutans strains were inoculated and grown as described above in the “Luciferase assays with chromosomal reporters” section. […] Supernatant was discarded, and cells were resuspended in 1 ml of fresh CDM. Resuspended cells were dropped into 10 ml of ice-cold 80% methanol and incubated for 1 h at room temperature. Afterwards, 800 μl of 4% paraformaldehyde was added to each methanol cell suspension. The mixture was incubated at room temperature for 5 min, and cells were spun down at 2,500 × g for 10 min. Supernatant was discarded, and cells were resuspended in 200 to 800 μl chilled GTE buffer (50 mM glucose, 20 mM Tris-HCl [pH 7.5], 1 mM EDTA). Cells were kept at 4°C overnight, and then 2 to 5 μl of cells in GTE buffer were placed on a microscope slide. Prepared slides were examined using an Olympus BX51 fluorescence microscope with a 100× UPLFLN objective (UPLFLN 100XO2; numerical aperture, 1.3) connected to an Olympus DP72 Single Chip color charge-coupled-device (CCD) camera. Images were processed using ImageJ 1.52i ([80]). […] Cells were classified as being in chains greater than three per chain or equal to or lesser than three per chain. The percentage of cells belonging to either of these categories was calculated as the number of cells in the category/total number of cells. […] For statistical analysis, data were analyzed via a one-way analysis of variance (ANOVA) with Dunnet’s multiple comparison posttest in Graph Pad Prism.

[15] = system: PwgkA-luxAB reporter (PdrA/SHP system); assay: luciferase assay, chromosomal PwgkA-luxAB reporter, wild type; conditions: CDM, 100 nM tryglysin
[16] = system: S. mutans UA159; assay: growth inhibition by UV-exposed tryglysin A; assay type: cell-based, Streptococcus mutans; conditions: short-wavelength UV light 1 h, 2 h or 4 h; 100 or 500 nM tryglysin A; CDM
Experimental: To monitor growth, OD600 was measured using a GENESYS 30 Vis spectrophotometer every hour, and data were plotted using Graph Pad Prism 8.0.0.

[17] = 5 h, A: one-way ANOVA with Dunnet's posttest
[18] = 7 h, A: one-way ANOVA with Dunnet's posttest

Row | Substance | Level of inhibition [2] | Level of inhibition [3] | Level of inhibition [4] | Level of inhibition [5] | growth inhibition at 100 nM (titration) [5] | optical density of cultures parallel to CFU assay [6] | Level of inhibition ([6]; CDM) | growth inhibition at 100 nM (titration) ([6]; CDM) | Level of inhibition [7] | Level of inhibition [8] | Level of inhibition [9] | Level of inhibition [10] | Level of inhibition [11] | Level of inhibition [12] | recovery of viability [13] | mode of action on viability [13] | cell chaining ([14]; 2 h) | cell chaining [14, 17] | cell chaining [14, 18] | induction of Pshp-luxAB by tryglysins [1] | other results
1 | GLDWWSL [XIP, reference compound] |  |  |  |  |  |  |  |  |  |  |  |  |  |  |  |  |  |  |  |  | induction of Pshp-luxAB reporter (cross talk) ([1]; 1 μM, Fig. S2C, performed twice): did not observe any induction
2 | VNCWGKH (also: sidechain bridge or staple (positions not given here)) [tryglysin B, 7-mer macrocyclic peptide VNCWGKH carrying the tetrahydro[5,6]benzindole modification, predicted product of the S. mutans wgk cluster] | − | − | − | ++ | substantially inhibited | A proportionate inhibition and restoration of growth were observable by optical density measurements | ++ | substantially inhibited | + | ++ | ++ | ++ | + | + | treated cells were able to overcome this by 24 h | bacteriostatic activities rather than bactericidal | small chains were observed | appeared to do the same | appeared to do the same | do not induce the system | concentration required for complete growth inhibition ([6]; CDM, over the 9-h growth assay, Fig. 6A): 1 µM; induction of PwgkA-luxAB by tryglysins [15]: do not induce the system
3 | VNSWGKH (also: sidechain bridge or staple (positions not given here)) [tryglysin A, macrocyclic 7-mer RiPP from S. ferus, VNSWGKH with tetrahydro[5,6]benzindole modification] | − | − | − | ++ | substantially inhibited | A proportionate inhibition and restoration of growth were observable by optical density measurements | ++ | substantially inhibited | + | ++ | ++ | ++^b | ++ | + | treated cells were able to overcome this by 24 h | bacteriostatic activities rather than bactericidal | small chains were observed | significantly increased | significantly increased | do not induce the system | reproducibility of inhibition ([10]; 100 nM, three experiments): b For S. pneumoniae D39, two experiments showed inhibition with 100 nM tryglysin A, one experiment did not.; inhibitory activity after UV exposure [16]: Proportionate decrease of inhibitory activity was observed; also recorded: inhibitory activity can be inactivated by exposure to UV light; induction of PwgkA-luxAB by tryglysins [15]: do not induce the system
